Data taken from ChEMBL document CHEMBL5154925, “Design and Optimization of Thienopyrimidine Derivatives as Potent and Selective PI3Kδ Inhibitors for the Treatment of B-Cell Malignancies” (J Med Chem, 2022).
Values after ≈ are worked out from the molar mass of the structure shown. Active and inactive are the calls of the source. No cut-off for these calls is given here.

Key:
[1] = Microsomal stability in mouse liver microsomes assessed as intrinsic clearance; format: ADME, Microsome; settings: read-out: CLH
[2] = biological target: Phosphatidylinositol 4,5-bisphosphate 3-kinase catalytic subunit gamma isoform (Homo sapiens, UniProt P48736); test: Inhibition of wild type partial length human PIK3CG (S144 to A1102 residues) expressed in mammalian cells assessed as residual activity at 10 uM relative to control; format: cell-based
Sequence of Phosphatidylinositol 4,5-bisphosphate 3-kinase catalytic subunit gamma isoform (P48736 whole entry, looked up, the tested form may be a part, canonical isoform): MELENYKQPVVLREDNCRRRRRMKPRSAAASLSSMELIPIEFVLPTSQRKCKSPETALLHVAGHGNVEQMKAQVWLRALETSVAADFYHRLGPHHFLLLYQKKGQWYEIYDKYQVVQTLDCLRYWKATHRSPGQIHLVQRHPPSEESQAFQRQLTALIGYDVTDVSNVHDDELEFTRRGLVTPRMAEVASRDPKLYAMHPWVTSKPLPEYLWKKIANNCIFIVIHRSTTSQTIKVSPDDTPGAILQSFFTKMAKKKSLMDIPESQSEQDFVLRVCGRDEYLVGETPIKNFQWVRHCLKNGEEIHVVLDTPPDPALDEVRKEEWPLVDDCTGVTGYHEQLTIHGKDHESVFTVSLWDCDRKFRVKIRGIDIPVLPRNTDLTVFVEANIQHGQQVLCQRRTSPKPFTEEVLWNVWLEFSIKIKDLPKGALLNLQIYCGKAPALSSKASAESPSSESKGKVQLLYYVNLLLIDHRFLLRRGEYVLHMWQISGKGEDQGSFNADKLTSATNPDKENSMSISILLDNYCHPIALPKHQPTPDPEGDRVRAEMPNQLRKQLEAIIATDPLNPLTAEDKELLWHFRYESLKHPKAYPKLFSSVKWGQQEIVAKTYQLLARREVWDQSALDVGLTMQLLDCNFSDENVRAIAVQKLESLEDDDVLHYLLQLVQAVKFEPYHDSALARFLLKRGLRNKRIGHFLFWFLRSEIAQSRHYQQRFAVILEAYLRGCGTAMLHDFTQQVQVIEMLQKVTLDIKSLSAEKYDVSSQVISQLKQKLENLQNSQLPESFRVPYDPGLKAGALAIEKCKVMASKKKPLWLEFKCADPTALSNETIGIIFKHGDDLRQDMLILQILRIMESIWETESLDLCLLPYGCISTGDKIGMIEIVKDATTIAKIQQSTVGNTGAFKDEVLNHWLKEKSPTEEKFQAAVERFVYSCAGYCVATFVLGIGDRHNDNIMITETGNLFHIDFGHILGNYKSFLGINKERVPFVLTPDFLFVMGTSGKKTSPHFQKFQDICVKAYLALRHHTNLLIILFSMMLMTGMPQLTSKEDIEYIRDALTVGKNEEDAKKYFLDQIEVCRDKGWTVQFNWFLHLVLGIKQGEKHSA

[3] = biological target: Phosphatidylinositol 4,5-bisphosphate 3-kinase catalytic subunit alpha isoform (Homo sapiens, UniProt P42336); test: Inhibition of PI3Kalpha (unknown origin) using PIP2 as substrate measured after 1 hr in presence of ATP by ADP-glo luminescence assay
Sequence of Phosphatidylinositol 4,5-bisphosphate 3-kinase catalytic subunit alpha isoform (P42336 whole entry, canonical isoform): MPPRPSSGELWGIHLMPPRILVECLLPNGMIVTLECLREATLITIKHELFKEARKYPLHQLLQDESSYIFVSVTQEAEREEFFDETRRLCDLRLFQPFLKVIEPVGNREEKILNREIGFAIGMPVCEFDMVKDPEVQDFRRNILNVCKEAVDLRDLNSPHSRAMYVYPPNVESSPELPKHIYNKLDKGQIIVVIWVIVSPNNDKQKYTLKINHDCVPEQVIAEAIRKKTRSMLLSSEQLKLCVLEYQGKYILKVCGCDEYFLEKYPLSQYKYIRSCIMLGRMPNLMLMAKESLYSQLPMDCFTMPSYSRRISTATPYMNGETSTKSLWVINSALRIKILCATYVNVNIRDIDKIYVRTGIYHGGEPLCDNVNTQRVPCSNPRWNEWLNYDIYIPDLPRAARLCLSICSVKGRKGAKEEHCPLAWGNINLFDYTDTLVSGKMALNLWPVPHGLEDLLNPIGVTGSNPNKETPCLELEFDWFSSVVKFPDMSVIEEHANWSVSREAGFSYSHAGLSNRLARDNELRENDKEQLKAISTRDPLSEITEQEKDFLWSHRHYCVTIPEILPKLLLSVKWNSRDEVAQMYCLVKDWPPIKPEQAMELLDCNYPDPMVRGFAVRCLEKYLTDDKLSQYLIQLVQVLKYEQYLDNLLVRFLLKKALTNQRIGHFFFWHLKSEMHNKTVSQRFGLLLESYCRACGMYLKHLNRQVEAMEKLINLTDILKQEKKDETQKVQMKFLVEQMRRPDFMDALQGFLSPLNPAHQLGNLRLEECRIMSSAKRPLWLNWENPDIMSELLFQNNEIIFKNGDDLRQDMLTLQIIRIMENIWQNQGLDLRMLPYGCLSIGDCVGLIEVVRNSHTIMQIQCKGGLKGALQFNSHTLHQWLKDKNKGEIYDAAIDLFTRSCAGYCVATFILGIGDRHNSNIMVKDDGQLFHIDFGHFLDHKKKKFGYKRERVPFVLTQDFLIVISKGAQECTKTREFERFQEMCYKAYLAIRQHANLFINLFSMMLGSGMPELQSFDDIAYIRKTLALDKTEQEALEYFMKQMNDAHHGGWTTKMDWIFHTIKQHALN

[4] = biological target: Serine/threonine-protein kinase mTOR (Homo sapiens, UniProt P42345); test: Inhibition of mTOR (unknown origin)
[5] = biological target: T1, Phosphatidylinositol 4,5-bisphosphate 3-kinase catalytic subunit delta isoform (Homo sapiens, UniProt O00329); test: Inhibition of PI3Kdelta in IgM stimulated human Raji cells incubated for 10 mins by AlphaLISA assay; format: cell-based
T1 sequence (O00329 whole entry): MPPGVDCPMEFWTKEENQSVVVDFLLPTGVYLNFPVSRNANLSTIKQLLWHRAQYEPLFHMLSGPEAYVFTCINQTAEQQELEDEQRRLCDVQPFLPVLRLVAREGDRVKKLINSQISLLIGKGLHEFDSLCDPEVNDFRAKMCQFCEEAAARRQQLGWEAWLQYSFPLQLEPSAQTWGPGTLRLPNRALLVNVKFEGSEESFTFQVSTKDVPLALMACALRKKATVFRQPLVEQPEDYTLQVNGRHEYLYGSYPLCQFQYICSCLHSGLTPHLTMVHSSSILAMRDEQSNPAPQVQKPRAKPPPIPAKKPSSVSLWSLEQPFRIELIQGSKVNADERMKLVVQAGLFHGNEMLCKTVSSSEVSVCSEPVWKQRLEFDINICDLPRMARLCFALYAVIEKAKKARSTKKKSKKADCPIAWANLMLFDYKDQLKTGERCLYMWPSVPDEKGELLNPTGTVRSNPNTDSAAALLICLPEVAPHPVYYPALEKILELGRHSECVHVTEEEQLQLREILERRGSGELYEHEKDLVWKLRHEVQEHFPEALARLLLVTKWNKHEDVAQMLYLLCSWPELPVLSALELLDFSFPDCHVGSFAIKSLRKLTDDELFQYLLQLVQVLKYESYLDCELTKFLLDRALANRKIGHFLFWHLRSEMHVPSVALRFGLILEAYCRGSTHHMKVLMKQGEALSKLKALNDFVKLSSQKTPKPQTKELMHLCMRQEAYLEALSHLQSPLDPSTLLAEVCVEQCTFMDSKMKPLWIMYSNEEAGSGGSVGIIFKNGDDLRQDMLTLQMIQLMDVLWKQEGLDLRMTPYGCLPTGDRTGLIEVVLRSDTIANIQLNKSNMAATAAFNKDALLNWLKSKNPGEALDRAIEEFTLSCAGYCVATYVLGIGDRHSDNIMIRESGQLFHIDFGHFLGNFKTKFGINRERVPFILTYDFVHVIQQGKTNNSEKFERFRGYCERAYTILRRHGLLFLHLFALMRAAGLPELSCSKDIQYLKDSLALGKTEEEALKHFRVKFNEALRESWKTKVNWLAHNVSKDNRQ

DOHH-2 = test: Antiproliferative activity against human DOHH-2 cells assessed as cell growth inhibition incubated for 96 hrs by cell titer glo assay; format: functional, cell-based; settings: DOHH-2, 96 h
[6] = biological target: Ribosomal protein S6 kinase alpha-3 (Homo sapiens) (UniProt P51812); test: Inhibition of wild type […] human RSK2 (M1 to D394 residues) expressed in mammalian expression system assessed as residual activity at 10 uM relative to control
Sequence of Ribosomal protein S6 kinase alpha-3 (Homo sapiens) (P51812 whole entry, the tested form may be a part): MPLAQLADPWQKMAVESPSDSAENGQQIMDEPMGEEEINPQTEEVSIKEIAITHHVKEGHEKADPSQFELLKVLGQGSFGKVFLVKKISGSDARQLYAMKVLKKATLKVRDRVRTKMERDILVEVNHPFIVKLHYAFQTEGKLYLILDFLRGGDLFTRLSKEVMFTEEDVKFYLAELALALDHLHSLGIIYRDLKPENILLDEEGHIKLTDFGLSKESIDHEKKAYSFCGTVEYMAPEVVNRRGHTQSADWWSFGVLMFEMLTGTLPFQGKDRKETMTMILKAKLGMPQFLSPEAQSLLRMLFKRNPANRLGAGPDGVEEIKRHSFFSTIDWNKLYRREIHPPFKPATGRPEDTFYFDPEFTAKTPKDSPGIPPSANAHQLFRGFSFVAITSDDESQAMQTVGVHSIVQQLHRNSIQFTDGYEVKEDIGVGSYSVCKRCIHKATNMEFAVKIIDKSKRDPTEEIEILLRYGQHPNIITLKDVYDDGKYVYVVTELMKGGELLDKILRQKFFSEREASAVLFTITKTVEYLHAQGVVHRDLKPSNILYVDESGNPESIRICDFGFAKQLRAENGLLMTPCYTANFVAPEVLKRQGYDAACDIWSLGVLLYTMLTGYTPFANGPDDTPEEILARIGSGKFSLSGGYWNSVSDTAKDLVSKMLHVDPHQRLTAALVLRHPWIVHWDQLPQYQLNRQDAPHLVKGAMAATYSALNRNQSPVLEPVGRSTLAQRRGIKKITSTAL

[7] = Solubility of the compound in PBS; format: physicochemical
[8] = Microsomal stability in mouse liver microsomes assessed as half life; format: ADME, Microsome
SUD4 = test: Antiproliferative activity against human SU-DHL-4 cells assessed as cell growth inhibition incubated for 96 hrs by cell titer glo assay; format: functional, cell-based; settings: SU-DHL-4, 96 h
SU-DHL-6 [9] = test: Induction of cell cycle arrest in human SU-DHL-6 cells assessed as accumulation at G0/G1 phase at 2 to 50 uM after 24 hrs by propidium iodide and RNAase staining based flow cytometric analysis; format: functional; settings: dose 2-50 µM
Pfeiffer [10] = test: Induction of apoptosis in human Pfeiffer cells assessed as necrotic cells at 2 uM incubated for 48 hrs by annexin V-FITC staining based flow cytometry (reference value: 6.62 %); format: functional
Pfeiffer [11] = test: Induction of apoptosis in human Pfeiffer cells assessed as viable […] cells at 10 uM incubated for 48 hrs by annexin V-FITC staining based flow cytometry (reference value: 81.14 %); format: functional
Pfeiffer [12] = test: Induction of apoptosis in human Pfeiffer cells assessed as necrotic cells at 10 uM incubated for 48 hrs by annexin V-FITC staining based flow cytometry (reference value: 6.62 %); format: functional
Pfeiffer [13] = test: Induction of apoptosis in human Pfeiffer cells assessed as viable […] cells at 50 uM incubated for 48 hrs by annexin V-FITC staining based flow cytometry (reference value: 81.14 %); format: functional
SU-DHL-6 [14] = test: Inhibition of P13K signaling pathway in human SU-DHL-6 cells assessed as reduction in AKT phosphorylation at S473 residue incubated for 4 hrs by Western blot analysis; format: cell-based; settings: dose 2-50 µM, DDE = dose-dependent effect
Pfeiffer [15] = test: Antitumor activity against human Pfeiffer cells xenografted in nude mouse assessed as tumor growth inhibition at 75 mg/kg, po BID for 21 days and measured twice weekly; format: functional; settings: 504 h, time 21 day, read-out: TGI
Mus musculus = test: In vivo inhibition of PI3K signalling in human Pfeiffer cells xenografted in nude mouse assessed as reduction in Akt phosphorylation at Ser473 at 75 mg/kg, po by Western blotting analysis; format: functional, organism-based
[16] = Tmax in ICR mouse at 30 mg/kg, po measured upto 24 hrs by LC-MS/MS analysis; format: ADME, organism-based; settings: in vivo
[17] = AUC (0 to t) in ICR mouse at 3 mg/kg, iv measured upto 24 hrs by LC-MS/MS analysis; format: ADME, organism-based; parameters: time < 24 hrs, dose 3 mg/kg, route iv; settings: in vivo
[18] = AUC (0 to t) in ICR mouse at 30 mg/kg, po measured upto 24 hrs by LC-MS/MS analysis; format: ADME, organism-based; parameters: time < 24 hrs, dose 30 mg/kg, route po; settings: in vivo
[19] = AUC (0 to infinity) in ICR mouse at 3 mg/kg, iv measured upto 24 hrs by LC-MS/MS analysis; format: ADME, organism-based; parameters: time < 24 hrs, dose 3 mg/kg, route iv; settings: in vivo
[20] = AUC (0 to infinity) in ICR mouse at 30 mg/kg, po measured upto 24 hrs by LC-MS/MS analysis; format: ADME, organism-based; parameters: dose 30 mg/kg, time < 24 hrs, route po; settings: in vivo
[21] = Half life in ICR mouse at 3 mg/kg, iv measured upto 24 hrs by LC-MS/MS analysis; format: ADME, organism-based; settings: in vivo
[22] = Oral bioavailability in ICR mouse at 30 mg/kg measured upto 24 hrs by LC-MS/MS analysis; format: ADME, organism-based; settings: in vivo
SU-DHL-6 [23] = test: Induction of apoptosis in human SU-DHL-6 cells assessed as apoptotic rate incubated for 48 hrs by annexin V-FITC staining based flow cytometry; format: functional, cell-based; settings: dose 2-50 µM, DDE = dose-dependent effect

`CCC(=O)N1CC[C@H](Nc2ncnc3sc(-c4cnc(OC)c(OC)c4)cc23)C1` showed a CLint scaled [1] of 60.3 mL/min/kg, an Activity [2] of 9.9% and an IC50 [3] of 0.31 µM. The IC50 [4] was over 10 µM, the IC50 [5] was 0.137 µM and the IC50 (DOHH-2) was 10.6 µM. It also gave an Activity [6] of 23%, a solubility [7] of 44.5 µM (≈ 18.4 µg/mL) and a half-life [8] of 1.51 h. The IC50 (SUD4) was 3.75 µM, the Activity (SU-DHL-6 [9]) was “Active” and the Activity (Pfeiffer [10]) was 5.01%. The Activity (Pfeiffer [11]) was 65.34%, the Activity (Pfeiffer [12]) was 6.72% and the Activity (Pfeiffer [13]) was 33.75%. For the same compound, the inhibition (SU-DHL-6 [14]) was “Dde”, the inhibition in vivo at 75 mg/kg (Pfeiffer [15]) was 65.5% and the inhibition (Mus musculus) was “Active”. The Tmax [16] was 1.5 h, the AUC(0-t) at 24 h [17] was 1370 ng·h/mL and the AUC(0-t) at 24 h [18] was 1030 ng·h/mL. For the same compound, the AUC(0-inf) [19] was 1370 ng·h/mL, the AUC(0-inf) [20] was 1030 ng·h/mL and the half-life [21] was 1.73 h. For the same compound, the bioavailability [22] was 7.49% and the Activity (SU-DHL-6 [23]) was “Dde”.
